# Results reported in US20240156832A1, “METHODS OF METABOLIZING METOPIMAZINE AND ITS SALTS” (Neurogastrx, Inc., priority 2020, published 2024).
# “Also recorded” adds a separate entry of the source.
# How the values were obtained:
# [1] = test system: human microsomal liver amidase; assay: Incubations with HLM for microsomal hydrolase/amidase activity; assay type: in vitro ADME
# Experimental: Incubations with HLM for Microsomal Hydrolase/Amidase Activity Prior to the reaction for amidase activity, the reaction mixture containing KPi buffer (pH 7.4, 8.4, or 9.4) and HLM was pre-incubated at 50° C. for 5 minutes to inactivate CYP and FMO activities in HLM. The mixture was placed on ice to cool down. An aliquot was taken out which was considered as t=0 min incubation. Then 10 μM MPZ was added into the remaining mixture and incubated at 37° C. on an orbital shaker for 60 minutes. A parallel set of incubations was conducted with 10 μM MPZ in the presence at 2 and 16 μM, of BNPP (a known inhibitor of amidase). All reactions were in triplicate. The total percentage of organic solvent in incubation mixture was ≤0.1%. The reactions were terminated by the addition of chilled acetonitrile: methanol, 90:10, (v/v). The samples were vortex-mixed and stored at ≤−70° C. and were subjected analyzed by LC MS/MS.
# microsomal FMOs in HLM = assay: Incubation with HLM for FMO (pH 8.4, methimazole, heat); assay type: in vitro ADME, human; conditions: HLM pH 8.4, 1 mM methimazole
# Experimental: MPZ, at 1.0 and 10.0 μM, was incubated with HLM or HKM to determine the contribution of microsomal FMOs on the metabolism of MPZ.
# A reaction mixture containing KPi buffer (pH 8.4), HLM or HKM (0.5 mg/mL protein) and MPZ (1.0 and 10.0 μM) was pre-incubated for 3-5 minutes at 37° C. The reaction was initiated by the addition of NADPH into the reaction mixture. Reaction was conducted for 0 and 60 min. A positive control (benzydamine, 100 μM) was incubated in duplicate for 0 and 20 minutes. Parallel incubation was conducted by adding 1 mM methimazole, a non-specific FMO inhibitor, under identical conditions. Heat inactivated microsomes (50° C. for at least 5 minutes) was incubated under identical conditions negative control. All other procedures were the same as described previously.
# [2] = test system: cytochrome P450 enzymes in HLM; assay: HLM incubation with CYP inhibitors, with and without NADPH; conditions: peak area ratio, 60 min, ABT 1 mM, quinidine 1 μM
# Experimental: Initially, two sets of incubations were conducted with HLM (0.5 mg/mL microsomal protein), 1 and 1011M MPZ, 100 mM KPi buffer (pH 7.4) where one set was in the presence and the other set was in the absence of 1 mM ABT, a non-specific CYP inhibitor for 60 minutes. This allowed the assessment of total CYP contribution for MPZ metabolism. Then, CYP-specific chemical inhibitors were used to assess the contribution of individual major CYP-isoforms where HLM were incubated with 1 or 1011M MPZ in the presence and in the absence of each CYP specific inhibitor at 37° C. for 60 minutes. The following CYP-isoform specific chemical inhibitors were used; furafylline (10 μM), tranylcypromine (10 μM), montelucast (0.5 μM), sulfaphenazole (5 μM), (+) benzylnirvinol (5 μM), quinidine (1 μM) and itraconazole (2.5 μM), for CYP1A2, CYP2B6, CYP2C8, CYP2C9, CYP2C19, CYP2D6 and CYP3A4/5. Parallel incubation with seven CYP specific probe substrates were included in as positive controls. For negative control reaction, MPZ was incubated at 37° C. in duplicate in reaction mixture devoid of NADPH. All other procedures were the same as previously described.
# [3] = Experimental: For protein concentration optimization, MPZ at 1 μM was incubated with varying concentration of HLM proteins (0.1, 0.25, 0.5, and 1.0 mg/mL microsomal protein), 100 mM KPi buffer (pH 7.4). After pre-incubation for 3-5 minutes at 37° C., the reaction was initiated by the addition of NADPH (1 mM) for 60 minutes in triplicates.
# For incubation time optimization, MPZ at 1 μM was incubated with pooled HLM (0.5 mg/mL microsomal protein) and 100 mM KPi buffer (pH 7.4). After pre-incubation for) for 3-5 minutes at 37° C., the reaction was initiated by the addition NADPH (1 mM) incubated for 0, 10, 20, 40, 60, and 90 minutes to determine the optimal incubation time (linear range). All metabolic reactions in this study were terminated by the addition of chilled organic solvent (acetonitrile:ethanol 90:10, v/v) containing internal standards, unless otherwise indicated.
# LC separation conditions were developed for MPZ and its metabolites (MPZA and MPZS), 7 hydroxycoumarin, each metabolite of CYP probe substrate, benzydamine N oxide, and phthalazine. The LC MS/MS system consisted of a Shimadzu Nexera X2 LC-30 UPLC system (Shimadzu Corporation, Kyoto, Japan), and an API 4000 triple quadrupole mass spectrometer (SCIEX, Framingham, MA) was used for analysis. All analytes were analyzed using electrospray ionization (ESI) in positive ion mode except for 7-EC, which used negative ion mode. The LC-MS/MS system was controlled by Analyst software (version 1.6.1, SCIEX, Framingham, MA).
# For each analytical method, a calibration curve was generated for the quantification of MPZ and its two metabolites (MPZA and MPZS). […] PAR was also used for all positive control compounds.
# % parent remaining=(mean concentration or PAR at each sampling time point/mean concentration or PAR of time zero)×100
# [4] = Incubation of MPZ in human liver S9; assay type: in vitro ADME; conditions: human liver S9, 60-minute incubation
# Experimental: Initial experiment was conducted with S9 fractions from liver and intestine to assess the role of liver and intestinal enzymes in the metabolism of MPZ. The reaction mixture contained 2.5 μM MPZ, pooled human liver or intestine S9 fraction (1 mg/mL S9 protein), 100 mM KPi buffer (pH 7.4). The reaction mixture was pre-incubated for 3-5 min at 37° C. in a humidified incubator filled with 5% CO2 followed by the addition of NADPH (1 mM) to initiate the reaction. The reaction was incubated for 0 and 60 min. The total percentage of organic solvent in incubation mixture was <0.1%. The reactions were terminated by the addition of sample mixture of acetonitrile and ethanol (90:10, v/v). The positive control substrate, 7-EC, was incubated in triplicate in an identical manner as MPZ for S9 fractions.
compound,measurement,setting,value
"O=[N+]([O-])c1ccc(OP(=O)(O)Oc2ccc([N+](=O)[O-])cc2)cc1 [BNPP, bis(4-nitrophenyl) phosphate]",activity (MPZA formation) inhibited,"[1]; BNPP 2 μM, HLM, 10 μM MPZ, even at the highest pH",at least 97%
same,MPZA formation inhibited,"[1]; BNPP 16 μM, HLM, 10 μM MPZ, all three pH values",> 99%
same,inhibition of MPZA formation in HLM (in words),"[1]; BNPP 2 and 16 μM, pH 7.4, 8.4, 9.4",dramatically inhibited the formation of MPZA in HLM; also recorded: effectively inhibits formation of MPZA under all conditions
"Cn1cc[nH]c1=S [methimazole, reference compound]",effect of FMO inhibitor on MPZA formation,microsomal FMOs in HLM,not inhibited
"C=C[C@H]1C[N@@]2CC[C@H]1C[C@@H]2[C@@H](O)c1ccnc2ccc(OC)cc12 [quinidine, reference compound]",effect of CYP inhibitor on MPZH formation,[2],inhibited formation of MPZH
metopimazine sulfoxide [MPZS],Peak Area at Time 0,[3],0
same,Peak Area at Time 90 min,[3],59
same,metabolites formed,[4],formed
